Values after ≈ are worked out from the molar mass of the structure shown.
tested on: not listed separately; assay: physchem; assay type: physicochemical; details: Table S2; n-octanol/PBS pH 7.4; incubation 1
Procedure: Determination of Distribution Coefficient (LogD, pH 7.4) […]
n-octanol – phosphate buffered saline (PBS), pH 7.4. Distribution coefficient (or LogD) is a […]
Phosphate buffered saline, tablet (Sigma-Aldrich, USA; Cat # P4417)
Acetic acid (Enamine, Ukraine.)
DMSO stock solutions of the test compounds 10mM
Gradient HPLC system (Shimadzu, Japan)
MTR22 Multi Mix Rotator (UNICO, USA)
Laboratory Centrifuge, Sigma 4-15C, Qiagen (SIGMA GmbH, Germany) […]
allowed to mix in a rotator for 1 h at 30 rpm. Phase separation was assured by centrifugation for […]
dilution. The samples (both phases) were analyzed using a HPLC system coupled with a tandem mass spectrometer. Mebendazole was used as a reference compound. […]
where: SO – peak area of the analyte in octanol phase
S P – peak area of the analyte in PBS buffer do – dilution coefficient for octanol phase dp – dilution coefficient for aqueous phase

Structure (SMILES)	D (partition ratio), incubation 1
Cn1cc(C(=O)N[C@@H]2[C@H]3C[C@]2(c2cc(F)c(F)c(F)c2)CO3)c(C(F)F)n1 (relative stereo) [Compound 29]	5.70E+02
O=C(N[C@@H]1[C@@H]2CC[C@@]1(c1ccc(Cl)cc1)C2)c1cccnc1Cl (relative stereo) [Compound 30]	4.87E+02

same assay, conditions: Table S2; n-octanol/PBS pH 7.4; incubation 2

Structure (SMILES)	D (partition ratio), incubation 2
Cn1cc(C(=O)N[C@@H]2[C@H]3C[C@]2(c2cc(F)c(F)c(F)c2)CO3)c(C(F)F)n1 (relative stereo) [Compound 29]	6.13E+02
O=C(N[C@@H]1[C@@H]2CC[C@@]1(c1ccc(Cl)cc1)C2)c1cccnc1Cl (relative stereo) [Compound 30]	3.16E+02

same assay, conditions: Table S2; n-octanol/PBS pH 7.4; incubation 3

Structure (SMILES)	D (partition ratio), incubation 3
Cn1cc(C(=O)N[C@@H]2[C@H]3C[C@]2(c2cc(F)c(F)c(F)c2)CO3)c(C(F)F)n1 (relative stereo) [Compound 29]	5.77E+02
O=C(N[C@@H]1[C@@H]2CC[C@@]1(c1ccc(Cl)cc1)C2)c1cccnc1Cl (relative stereo) [Compound 30]	6.11E+02

same assay, conditions: pH 7.4, LogD, pH 7.4 (mean)

Structure (SMILES)	logD at 1 h
Cn1cc(C(=O)N[C@@H]2[C@H]3C[C@]2(c2cc(F)c(F)c(F)c2)CO3)c(C(F)F)n1 (relative stereo) [Compound 29]	2.77
O=C(N[C@@H]1[C@@H]2CC[C@@]1(c1ccc(Cl)cc1)C2)c1cccnc1Cl (relative stereo) [Compound 30]	2.66

same assay, conditions: pH 7.4, LogD, pH 7.4, incubation 1

Structure (SMILES)	logD at 1 h
Cn1cc(C(=O)N[C@@H]2[C@H]3C[C@]2(c2cc(F)c(F)c(F)c2)CO3)c(C(F)F)n1 (relative stereo) [Compound 29]	2.76
O=C(N[C@@H]1[C@@H]2CC[C@@]1(c1ccc(Cl)cc1)C2)c1cccnc1Cl (relative stereo) [Compound 30]	2.69

same assay, conditions: pH 7.4, LogD, pH 7.4, incubation 2

Structure (SMILES)	logD at 1 h
Cn1cc(C(=O)N[C@@H]2[C@H]3C[C@]2(c2cc(F)c(F)c(F)c2)CO3)c(C(F)F)n1 (relative stereo) [Compound 29]	2.79
O=C(N[C@@H]1[C@@H]2CC[C@@]1(c1ccc(Cl)cc1)C2)c1cccnc1Cl (relative stereo) [Compound 30]	2.5

same assay, conditions: pH 7.4, LogD, pH 7.4, incubation 3

Structure (SMILES)	logD at 1 h
Cn1cc(C(=O)N[C@@H]2[C@H]3C[C@]2(c2cc(F)c(F)c(F)c2)CO3)c(C(F)F)n1 (relative stereo) [Compound 29]	2.76
O=C(N[C@@H]1[C@@H]2CC[C@@]1(c1ccc(Cl)cc1)C2)c1cccnc1Cl (relative stereo) [Compound 30]	2.79

same assay, conditions: pH 7.4, logD (7.4)

Structure (SMILES)	logD at 1 h
Cn1cc(C(=O)N[C@@H]2[C@H]3C[C@]2(c2cc(F)c(F)c(F)c2)CO3)c(C(F)F)n1 (relative stereo) [Compound 29]	2.8
O=C(N[C@@H]1[C@@H]2CC[C@@]1(c1ccc(Cl)cc1)C2)c1cccnc1Cl (relative stereo) [Compound 30]	3.5 ± 0.1

tested on: not listed separately; assay: Metabolic stability in human liver microsomes; assay type: in vitro ADME; details: both sexes, human, liver microsomes, pH 7.4, human liver microsomes, 2 μM, 37 °C, with NADPH; 7 min
Procedure: (§1) The data acquisition and system control was performed using Analyst 1.6.3 software from AB Sciex. Methods Microsomal incubations were carried out in 96-well plates in 5 aliquots of 30 μL each (one for each time point). […] In the control reactions the NADPH-cofactor system was substituted with phosphate buffer. […] Each reaction was performed in duplicates. Five time points over 40 minutes were analyzed. The reactions were stopped by adding 4 volumes of methanol containing internal standard to incubation aliquots, followed by protein sedimentation by centrifuging at 5500 rpm for 4 minutes. […]. Supernatants were analyzed using the HPLC system coupled with tandem mass spectrometer. […] In some cases, the last time point is excluded from the calculations to ensure acceptable logarithmic linearity of decay.

Structure (SMILES)	remaining at […], 2 µM
Cn1cc(C(=O)N[C@@H]2[C@H]3C[C@]2(c2cc(F)c(F)c(F)c2)CO3)c(C(F)F)n1 (relative stereo) [Compound 29]	106%
O=C(N[C@@H]1[C@@H]2CC[C@@]1(c1ccc(Cl)cc1)C2)c1cccnc1Cl (relative stereo) [Compound 30]	94%

same assay, conditions: both sexes, human, liver microsomes, pH 7.4, human liver microsomes, 2 μM, 37 °C, with NADPH; 15 min

Structure (SMILES)	remaining at […], 2 µM
Cn1cc(C(=O)N[C@@H]2[C@H]3C[C@]2(c2cc(F)c(F)c(F)c2)CO3)c(C(F)F)n1 (relative stereo) [Compound 29]	93%
O=C(N[C@@H]1[C@@H]2CC[C@@]1(c1ccc(Cl)cc1)C2)c1cccnc1Cl (relative stereo) [Compound 30]	95%

same assay, conditions: both sexes, human, liver microsomes, pH 7.4, human liver microsomes, 2 μM, 37 °C, with NADPH; 25 min; read-out: % Remaining, Mean of 2

Structure (SMILES)	remaining at 25 min, 2 µM
Cn1cc(C(=O)N[C@@H]2[C@H]3C[C@]2(c2cc(F)c(F)c(F)c2)CO3)c(C(F)F)n1 (relative stereo) [Compound 29]	83%
O=C(N[C@@H]1[C@@H]2CC[C@@]1(c1ccc(Cl)cc1)C2)c1cccnc1Cl (relative stereo) [Compound 30]	90%

same assay, conditions: both sexes, human, liver microsomes, pH 7.4, human liver microsomes, 2 μM, 37 °C, with NADPH; 40 min; read-out: % Remaining, Mean of 2

Structure (SMILES)	remaining at 40 min, 2 µM
Cn1cc(C(=O)N[C@@H]2[C@H]3C[C@]2(c2cc(F)c(F)c(F)c2)CO3)c(C(F)F)n1 (relative stereo) [Compound 29]	72%
O=C(N[C@@H]1[C@@H]2CC[C@@]1(c1ccc(Cl)cc1)C2)c1cccnc1Cl (relative stereo) [Compound 30]	80%

same assay, conditions: both sexes, human, liver microsomes, pH 7.4, human liver microsomes, 0.42 mg protein per ml; Table S3; * approximate due to high stability; read-out: Clint

Structure (SMILES)	microsomal CLint at 2 µM
Cn1cc(C(=O)N[C@@H]2[C@H]3C[C@]2(c2cc(F)c(F)c(F)c2)CO3)c(C(F)F)n1 (relative stereo) [Compound 29]	23 µL/min/mg
O=C(N[C@@H]1[C@@H]2CC[C@@]1(c1ccc(Cl)cc1)C2)c1cccnc1Cl (relative stereo) [Compound 30]	12 µL/min/mg

same assay, conditions: both sexes, human, liver microsomes, pH 7.4, human liver microsomes; * approximate due to high stability; read-out: t1/2

Structure (SMILES)	half-life at 2 µM
Cn1cc(C(=O)N[C@@H]2[C@H]3C[C@]2(c2cc(F)c(F)c(F)c2)CO3)c(C(F)F)n1 (relative stereo) [Compound 29]	1.22 h
O=C(N[C@@H]1[C@@H]2CC[C@@]1(c1ccc(Cl)cc1)C2)c1cccnc1Cl (relative stereo) [Compound 30]	2.31 h

same assay, conditions: both sexes, pH 7.4; human liver microsomes, no NADPH cofactor; 40 min; ** instability partially or completely not determined by CYP450 activity; read-out: % Remaining without cofactor, Mean of 2

Structure (SMILES)	remaining at 40 min, 2 µM
Cn1cc(C(=O)N[C@@H]2[C@H]3C[C@]2(c2cc(F)c(F)c(F)c2)CO3)c(C(F)F)n1 (relative stereo) [Compound 29]	89%
O=C(N[C@@H]1[C@@H]2CC[C@@]1(c1ccc(Cl)cc1)C2)c1cccnc1Cl (relative stereo) [Compound 30]	71%

same assay, conditions: both sexes, pH 7.4; human liver microsomes; elimination constant; * approximate due to high stability; read-out: kel (converted)

Structure (SMILES)	k el at 2 µM
Cn1cc(C(=O)N[C@@H]2[C@H]3C[C@]2(c2cc(F)c(F)c(F)c2)CO3)c(C(F)F)n1 (relative stereo) [Compound 29]	0.00015 s⁻¹
O=C(N[C@@H]1[C@@H]2CC[C@@]1(c1ccc(Cl)cc1)C2)c1cccnc1Cl (relative stereo) [Compound 30]	8.33e-05 s⁻¹

tested on: human liver microsomes; assay: Metabolic stability in human liver microsomes; assay type: in vitro ADME; details: human liver microsomes
Procedure: as §1

Structure (SMILES)	CIint, intrinsic clearance
Cn1cc(C(=O)N[C@@H]2[C@H]3C[C@]2(c2cc(F)c(F)c(F)c2)CO3)c(C(F)F)n1 (relative stereo) [Compound 29]	23 µL/min/mg
O=C(N[C@@H]1[C@@H]2CC[C@@]1(c1ccc(Cl)cc1)C2)c1cccnc1Cl (relative stereo) [Compound 30]	12 µL/min/mg

tested on: Fusarium oxysporum; assay: Antifungal susceptibility testing (MIC, CLSI M38-A2 microdilution); assay type: cell-based; details: Fig. 4e
Procedure: (§2) page 252: Antifungal susceptibility testing (determination of MIC values) The antifungal susceptibility tests were performed according to the Clinical and Laboratory Standards Institute (CLSI) […]-A2 protocol for mycelial fungi (1). Stock solutions were prepared by dissolving an appropriate amount of testing compounds in DMSO. Solutions of test compounds were added to the wells of a 96-well polystyrene microtiter plate (Colstar, USA) in the concentration range from 0.5 to 0.001 mg/mL. Mycelium growth was monitored photometrically at 490 nm by measuring the optical density of each well. Measurements were carried out two times: immediately after adding all components (RPMI 1640 broth, conidial suspension, test compound solutions) and after incubation plate at 26 °C for 48 h (2). MICs were the lowest testing compound concentrations that produced partial growth inhibition (50% of optical density relative to the control without testing compounds). The tests were performed in triplicate Results : Table S6. The MIC values of Fluxapyroxad , Boscalid , and their saturated analogues against Fusarium oxysporum , and Fusarium verticillioides Antifungal compaunds MIC, mg/mL Fusarium oxysporum Fusarium verticillioides Fluxapyroxad -* 0.250 Analogue (±)- 28 0.125 0.125 […] of 0.063 mg/mL. […]

Structure (SMILES)	MIC
O=C(N[C@@H]1[C@@H]2CC[C@@]1(c1ccc(Cl)cc1)C2)c1cccnc1Cl (relative stereo) [Compound 30]	31 µg/mL (≈ 89.3 µM)

same assay, conditions: Table S6, lowest concentration giving 50% of optical density relative to control, 26 °C, 48 h

Structure (SMILES)	MIC
O=C(N[C@@H]1[C@@H]2CC[C@@]1(c1ccc(Cl)cc1)C2)c1cccnc1Cl (relative stereo) [Compound 30]	31 µg/mL (≈ 89.3 µM)

same assay, conditions: at a concentration of 0.125 mg/mL, MIC not reached, read-out: Maximal inhibition of growth

Structure (SMILES)	inhibition at 125 µg/mL
Cn1cc(C(=O)N[C@@H]2[C@H]3C[C@]2(c2cc(F)c(F)c(F)c2)CO3)c(C(F)F)n1 (relative stereo) [Compound 29]	35.7 ± 2.4%

tested on: Fusarium verticillioides; assay: as above; assay type: cell-based; details: Fig. 4e
Procedure: as §2

Structure (SMILES)	MIC
O=C(N[C@@H]1[C@@H]2CC[C@@]1(c1ccc(Cl)cc1)C2)c1cccnc1Cl (relative stereo) [Compound 30]	0.031 mg ml^–1

same assay, conditions: Fusarium verticillioides, 48 h, Table S6; lowest concentration giving 50% of optical density relative to control; 26 °C, 48 h; read-out: MIC

Structure (SMILES)	MIC
Cn1cc(C(=O)N[C@@H]2[C@H]3C[C@]2(c2cc(F)c(F)c(F)c2)CO3)c(C(F)F)n1 (relative stereo) [Compound 29]	250 µg/mL (≈ 645 µM)
O=C(N[C@@H]1[C@@H]2CC[C@@]1(c1ccc(Cl)cc1)C2)c1cccnc1Cl (relative stereo) [Compound 30]	31 µg/mL (≈ 89.3 µM)

same assay, conditions: Fusarium verticillioides, Fig. 4e; read-out: MIC

Structure (SMILES)	MIC
Cn1cc(C(=O)N[C@@H]2[C@H]3C[C@]2(c2cc(F)c(F)c(F)c2)CO3)c(C(F)F)n1 (relative stereo) [Compound 29]	250 µg/mL (≈ 645 µM)

Reference: paper PMC10396955, “2-Oxabicyclo[2.1.1]hexanes as saturated bioisosteres of the ortho-substituted phenyl ring” (Nature Chemistry, 2023)
